Reference: PubChem BioAssay AID248 (DTP/NCI, 2004)
Values joined by “and” are separate entries in the source; they are usually repeats but may differ in a detail not shown here. Equal values may be shown once. Inconclusive results and toxic doses are left out. Rule as the data show it: active = T/C of 150% or more; inactive = T/C below 125%.

Tested on: L1210 leukemia ip in BDF1 mice, survival T/C
Experiment: NCI In Vivo Anticancer Drug Screen. Data for tumor model L1210 Leukemia (intraperitoneal) in B6D2F1 (BDF1) mice
Settings: endpoint: mean survival time, higher = longer survival
Procedure, shortened: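 In this screen, tumor-bearing mice given compound are compared to those given vehicle, and their survival values are reported as a treated-to-control quotient.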

[1] = dose: 100.0 mg/kg/injection, schedule: Q01DX009 (ip), vehicle: saline with Tween-80
[2] = dose: 100.0 mg/kg/injection, schedule: Q04DX003 (ip), vehicle: saline with Tween-80
[3] = dose: 200.0 mg/kg/injection, schedule: Q04DX003 (ip), vehicle: saline with Tween-80
[4] = dose: 300.0 mg/kg/injection, schedule: Q01DX009 (ip), vehicle: saline
[5] = dose: 400.0 mg/kg/injection, schedule: Q04DX003 (ip), vehicle: saline with Tween-80
[6] = dose: 100.0 mg/kg/injection, schedule: Q01DX001 (ip), vehicle: carboxymethylcellulose (CMC)
[7] = dose: 200.0 mg/kg/injection, schedule: Q01DX001 (ip), vehicle: carboxymethylcellulose (CMC)
[8] = dose: 400.0 mg/kg/injection, schedule: Q01DX001 (ip), vehicle: carboxymethylcellulose (CMC)

Measured: T/C

CCC(=O)C(c1ccccc1)(c1ccccc1)C(C)CN(C)C (stereo unspecified)
inactive: dose: 5.0 mg/kg/injection, schedule: Q01DX001 (ip), vehicle: saline 102 % of control | dose: 10.0 mg/kg/injection, schedule: Q01DX001 (ip), vehicle: saline 104 % of control | dose: 20.0 mg/kg/injection, schedule: Q01DX001 (ip), vehicle: saline 96 % of control | dose: 40.0 mg/kg/injection, schedule: Q01DX001 (ip), vehicle: saline 87 % of control

CC(=O)Nc1ccc(SC(Sc2ccc(NC(C)=O)cc2)c2ccccc2)cc1
inactive: dose: 100.0 mg/kg/injection, schedule: Q01DX001 (ip), vehicle: saline 92 % of control | dose: 200.0 mg/kg/injection, schedule: Q01DX001 (ip), vehicle: saline 92 % of control | dose: 400.0 mg/kg/injection, schedule: Q01DX001 (ip), vehicle: saline 92 % of control

O=C1c2cccc3c2C2(O)c4c1cccc4C(=O)c1cccc(c12)C3=O
inactive: [1] 101 % of control | [2] 96 % of control | dose: 132.0 mg/kg/injection, schedule: Q01DX009 (ip), vehicle: saline 101 % of control | dose: 200.0 mg/kg/injection, schedule: Q01DX009 (ip), vehicle: saline 101 % of control | [3] 100 % of control | [4] 95 % of control | [5] 102 % of control

CC(c1ccccc1)N1COc2ccc3ccccc3c2C1 (stereo unspecified)
inactive: dose: 50.0 mg/kg/injection, schedule: Q01DX001 (ip), vehicle: carboxymethylcellulose (CMC) 97 % of control | dose: 50.0 mg/kg/injection, schedule: Q01DX015 (ip), vehicle: carboxymethylcellulose (CMC) 96 % of control | [6] 93 % of control | dose: 100.0 mg/kg/injection, schedule: Q01DX015 (ip), vehicle: carboxymethylcellulose (CMC) 96 % of control | [2] 94 % of control | [7] 103 % of control | dose: 200.0 mg/kg/injection, schedule: Q01DX015 (ip), vehicle: carboxymethylcellulose (CMC) 97 % of control | [3] 93 % of control | [8] 104 % of control | dose: 400.0 mg/kg/injection, schedule: Q01DX015 (ip), vehicle: carboxymethylcellulose (CMC) 90 % of control | [5] 88 % of control

CCc1cccc(CC)c1NC(=O)/C=C/C(=O)O
inactive: dose: 100.0 mg/kg/injection, schedule: Q04DX002 (ip), vehicle: saline with Tween-80 93 % of control | dose: 200.0 mg/kg/injection, schedule: Q04DX002 (ip), vehicle: saline with Tween-80 100 % of control | dose: 400.0 mg/kg/injection, schedule: Q04DX002 (ip), vehicle: saline with Tween-80 96 % of control

CC(C)=NOS(=O)(=O)c1ccc(C)cc1
inactive: dose: 75.0 mg/kg/injection, schedule: Q01DX009 (ip), vehicle: saline 103 % of control | dose: 75.0 mg/kg/injection, schedule: Q04DX003 (ip), vehicle: saline 88 % of control | dose: 150.0 mg/kg/injection, schedule: Q01DX009 (ip), vehicle: saline 98 % of control | dose: 150.0 mg/kg/injection, schedule: Q04DX003 (ip), vehicle: saline 92 % of control | [4] 101 % of control | dose: 300.0 mg/kg/injection, schedule: Q04DX003 (ip), vehicle: saline 88 % of control

CS(=O)(=O)c1nsc(S(C)(=O)=O)c1C#N
inactive: dose: 100.0 mg/kg/injection, schedule: Q04DX003 (ip), vehicle: carboxymethylcellulose (CMC) 95 % of control | dose: 200.0 mg/kg/injection, schedule: Q04DX003 (ip), vehicle: carboxymethylcellulose (CMC) 97 % of control | dose: 400.0 mg/kg/injection, schedule: Q04DX003 (ip), vehicle: carboxymethylcellulose (CMC) 95 % of control

CCN(CC)CCOc1ccccc1-c1nc2ccccc2s1
inactive: dose: 25.0 mg/kg/injection, schedule: Q01DX009 (ip), vehicle: Klucel (hydroxypropylcellulose) (HPC) 104 % of control | dose: 50.0 mg/kg/injection, schedule: Q01DX009 (ip), vehicle: Klucel (hydroxypropylcellulose) (HPC) 98 % of control | dose: 100.0 mg/kg/injection, schedule: Q01DX009 (ip), vehicle: Klucel (hydroxypropylcellulose) (HPC) 96 % of control and 108 % of control

C[n+]1ccc(/C=C/c2c[nH]c3ccccc23)cc1
inactive: dose: 6.25 mg/kg/injection, schedule: Q04DX003 (ip), vehicle: saline with Tween-80 92 % of control | dose: 12.5 mg/kg/injection, schedule: Q04DX003 (ip), vehicle: saline with Tween-80 104 % of control | dose: 25.0 mg/kg/injection, schedule: Q04DX003 (ip), vehicle: saline with Tween-80 97 % of control

CCCCCCCCCCCCCCCCNC(=S)NC1CCCCC1
inactive: dose: 30.0 mg/kg/injection, schedule: Q01DX015 (ip), vehicle: carboxymethylcellulose (CMC) 104 % of control | dose: 60.0 mg/kg/injection, schedule: Q01DX015 (ip), vehicle: carboxymethylcellulose (CMC) 98 % of control | dose: 100.0 mg/kg/injection, schedule: Q01DX001 (ip), vehicle: acetone 100 % of control | [1] 102 % of control | dose: 100.0 mg/kg/injection, schedule: Q04DX003 (ip), vehicle: saline 101 % of control | dose: 120.0 mg/kg/injection, schedule: Q01DX015 (ip), vehicle: carboxymethylcellulose (CMC) 94 % of control | dose: 200.0 mg/kg/injection, schedule: Q01DX001 (ip), vehicle: acetone 88 % of control | dose: 200.0 mg/kg/injection, schedule: Q01DX009 (ip), vehicle: saline with Tween-80 96 % of control | dose: 200.0 mg/kg/injection, schedule: Q04DX003 (ip), vehicle: saline 97 % of control | dose: 240.0 mg/kg/injection, schedule: Q01DX015 (ip), vehicle: carboxymethylcellulose (CMC) 94 % of control and 102 % of control | dose: 400.0 mg/kg/injection, schedule: Q01DX001 (ip), vehicle: acetone 91 % of control | dose: 400.0 mg/kg/injection, schedule: Q04DX003 (ip), vehicle: saline 101 % of control | dose: 480.0 mg/kg/injection, schedule: Q01DX015 (ip), vehicle: carboxymethylcellulose (CMC) 101 % of control

COc1ccccc1NC(=O)Nc1c(C)cccc1C
inactive: dose: 100.0 mg/kg/injection, schedule: Q01DX009 (ip), vehicle: gum acacia 97 % of control | dose: 100.0 mg/kg/injection, schedule: Q04DX003 (ip), vehicle: gum acacia 98 % of control | dose: 200.0 mg/kg/injection, schedule: Q01DX009 (ip), vehicle: gum acacia 88 % of control | dose: 200.0 mg/kg/injection, schedule: Q04DX003 (ip), vehicle: gum acacia 93 % of control | dose: 400.0 mg/kg/injection, schedule: Q01DX009 (ip), vehicle: gum acacia 90 % of control | dose: 400.0 mg/kg/injection, schedule: Q04DX003 (ip), vehicle: gum acacia 94 % of control

CCOC(=O)CC/C(=C/c1cccc2ccccc12)[N+](=O)[O-]
inactive: [2] 105 % of control | [3] 94 % of control

ClC(Cl)(c1ccccc1)C1(c2ccccc2)CC1
inactive: dose: 75.0 mg/kg/injection, schedule: Q01DX001 (ip), vehicle: acetone 107 % of control | dose: 150.0 mg/kg/injection, schedule: Q01DX001 (ip), vehicle: acetone 109 % of control

O=C(CC(O)(C(F)(F)F)C(F)(F)F)CC(O)(C(F)(F)F)C(F)(F)F
inactive: dose: 0.25 mg/kg/injection, schedule: Q01DX009 (ip), vehicle: other 111 % of control | dose: 0.5 mg/kg/injection, schedule: Q01DX009 (ip), vehicle: other 107 % of control and 88 % of control | dose: 1.0 mg/kg/injection, schedule: Q01DX009 (ip), vehicle: other 97 % of control | dose: 1.0 mg/kg/injection, schedule: Q04DX003 (ip), vehicle: other 94 % of control | dose: 1.25 mg/kg/injection, schedule: Q01DX009 (ip), vehicle: saline 95 % of control | dose: 2.0 mg/kg/injection, schedule: Q01DX009 (ip), vehicle: other 108 % of control | dose: 2.0 mg/kg/injection, schedule: Q04DX003 (ip), vehicle: other 87 % of control | dose: 2.5 mg/kg/injection, schedule: Q01DX009 (ip), vehicle: saline with Tween-80 102 % of control | dose: 2.5 mg/kg/injection, schedule: Q01DX009 (ip), vehicle: saline 104 % of control | dose: 3.13 mg/kg/injection, schedule: Q04DX003 (ip), vehicle: other 104 % of control | dose: 5.0 mg/kg/injection, schedule: Q01DX009 (ip), vehicle: saline with Tween-80 97 % of control | dose: 5.0 mg/kg/injection, schedule: Q01DX009 (ip), vehicle: saline 95 % of control

Cc1cc(C)c2c(SC(C)C)nc(N)nc2n1
inactive: dose: 100.0 mg/kg/injection, schedule: Q01DX Z (ip), vehicle: methylcellulose (MC) 95 % of control | dose: 200.0 mg/kg/injection, schedule: Q01DX Z (ip), vehicle: methylcellulose (MC) 97 % of control

O=C(CCl)N(O)c1ccc(/C=C/c2ccccc2)cc1
inactive: [6] 90 % of control | [7] 88 % of control | [8] 95 % of control

C=CCC1CCCCC1
inactive: [6] 104 % of control | [7] 105 % of control | [8] 104 % of control
